From the supplement of paper PMC10307832

Key:
Assay in all cases: relative viability (nuclei count vs DMSO), 5 days (fraction); higher = more cells survive
HCC-78 = system: HCC-78
Procedure, shortened: (§1)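 Lung cancer cell lines in 1536-well plates were dosed by pin tool the day after seeding, either with one drug alone or with a fixed anchor-drug dose plus five library-drug doses (not always all listed) in √10 steps. After 5 days, cells were fixed and their nuclei stained in one step (final 0.05% Triton X-100, 1% formaldehyde, 1 ug/ml Hoechst), then counted on 4× images. Relative viability is the nuclei count in treated wells divided by that in vehicle wells. Values are medians of duplicate plates.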

NCI-H650 = system: NCI-H650
Procedure, shortened: as §1

HARA = system: HARA
Procedure, shortened: as §1

NCI-H596 = system: NCI-H596
Procedure, shortened: as §1

PC-3 [JPC-3] = system: PC-3 [JPC-3]
Procedure, shortened: as §1

NCI-H23 = system: NCI-H23
Procedure, shortened: as §1

COR-L23 = system: COR-L23
Procedure, shortened: as §1

LU99A = system: LU99A
Procedure, shortened: as §1

NCI-H3122 = system: NCI-H3122
Procedure, shortened: as §1

NCI-H1793 = system: NCI-H1793
Procedure, shortened: as §1

SK-LU-1 = system: SK-LU-1
Procedure, shortened: as §1

NCI-H358 = system: NCI-H358
Procedure, shortened: as §1

H3255 = system: H3255
Procedure, shortened: as §1

201T = system: 201T
Procedure, shortened: as §1

NCI-H1651 = system: NCI-H1651
Procedure, shortened: as §1

NCI-H1755 = system: NCI-H1755
Procedure, shortened: as §1

NCI-H460 = system: NCI-H460
Procedure, shortened: as §1

NCI-H322M = system: NCI-H322M
Procedure, shortened: as §1

NCI-H1650 = system: NCI-H1650
Procedure, shortened: as §1

NCI-H2085 = system: NCI-H2085
Procedure, shortened: as §1

HCC-366 = system: HCC-366
Procedure, shortened: as §1

NCI-H2087 = system: NCI-H2087
Procedure, shortened: as §1

NCI-H522 = system: NCI-H522
Procedure, shortened: as §1

**Q.** What does the source list for `CCNC(=O)c1noc(-c2cc(C(C)C)c(O)cc2O)c1-c1ccc(CN2CCOCC2)cc1` [Luminespib] + Cc1nc(Nc2ncc(C(=O)Nc3c(C)cccc3Cl)s2)cc(N2CCN(CCO)CC2)n1 [Dasatinib] (partner 0.075 µM)?
**A.** relative viability (HCC-78; first compound 0.002 µM): 0.373; relative viability (HCC-78; first compound 0.006325 µM): 0.251; relative viability (HCC-78; first compound 0.06325 µM): 0.455; relative viability (HCC-78; first compound 0.2 µM): 0.204; relative viability (NCI-H650; first compound 0.002 µM): 0.468; relative viability (NCI-H650; first compound 0.006325 µM): 0.417; relative viability (NCI-H650; first compound 0.02 µM): 0.359; relative viability (NCI-H650; first compound 0.06325 µM): 0.112; relative viability (NCI-H650; first compound 0.2 µM): 0.115; relative viability (HARA; first compound 0.002 µM): 0.224; relative viability (HARA; first compound 0.006325 µM): 0.279; relative viability (HARA; first compound 0.02 µM): 0.205; relative viability (HARA; first compound 0.06325 µM): 0.0633; relative viability (HARA; first compound 0.2 µM): 0.0774; relative viability (NCI-H596; first compound 0.002 µM): 0.529; relative viability (NCI-H596; first compound 0.006325 µM): 0.614; relative viability (NCI-H596; first compound 0.02 µM): 0.426; relative viability (NCI-H596; first compound 0.06325 µM): 0.479; relative viability (NCI-H596; first compound 0.2 µM): 0.511; relative viability (PC-3 [JPC-3]; first compound 0.002 µM): 0.99; relative viability (PC-3 [JPC-3]; first compound 0.006325 µM): 0.945; relative viability (PC-3 [JPC-3]; first compound 0.02 µM): 0.829; relative viability (PC-3 [JPC-3]; first compound 0.06325 µM): 0.863; relative viability (PC-3 [JPC-3]; first compound 0.2 µM): 0.25; relative viability (NCI-H23; first compound 0.002 µM): 0.839; relative viability (NCI-H23; first compound 0.006325 µM): 0.765; relative viability (NCI-H23; first compound 0.02 µM): 0.517; relative viability (NCI-H23; first compound 0.06325 µM): 0.118; relative viability (NCI-H23; first compound 0.2 µM): 0.13; relative viability (COR-L23; first compound 0.002 µM): 0.6; relative viability (COR-L23; first compound 0.006325 µM): 0.363; relative viability (COR-L23; first compound 0.02 µM): 0.433; relative viability (COR-L23; first compound 0.06325 µM): 0.0438; relative viability (COR-L23; first compound 0.2 µM): 0.0462; relative viability (LU99A; first compound 0.002 µM): 0.658; relative viability (LU99A; first compound 0.006325 µM): 0.406; relative viability (LU99A; first compound 0.02 µM): 0.377; relative viability (LU99A; first compound 0.06325 µM): 0.0593; relative viability (LU99A; first compound 0.2 µM): 0.0775; relative viability (NCI-H3122; first compound 0.002 µM): 0.83; relative viability (NCI-H3122; first compound 0.006325 µM): 0.812; relative viability (NCI-H3122; first compound 0.02 µM): 0.0669; relative viability (NCI-H3122; first compound 0.06325 µM): 0.0573; relative viability (NCI-H3122; first compound 0.2 µM): 0.0548; relative viability (NCI-H1793; first compound 0.002 µM): 0.39; relative viability (NCI-H1793; first compound 0.006325 µM): 0.359; relative viability (NCI-H1793; first compound 0.02 µM): 0.117; relative viability (NCI-H1793; first compound 0.06325 µM): 0.116; relative viability (NCI-H1793; first compound 0.2 µM): 0.14; relative viability (SK-LU-1; first compound 0.002 µM): 0.194; relative viability (SK-LU-1; first compound 0.006325 µM): 0.167; relative viability (SK-LU-1; first compound 0.02 µM): 0.077; relative viability (SK-LU-1; first compound 0.06325 µM): 0.049; relative viability (SK-LU-1; first compound 0.2 µM): 0.0612; relative viability (NCI-H358; first compound 0.002 µM): 0.149; relative viability (NCI-H358; first compound 0.006325 µM): 0.164; relative viability (NCI-H358; first compound 0.02 µM): 0.0956; relative viability (NCI-H358; first compound 0.06325 µM): 0.0558; relative viability (NCI-H358; first compound 0.2 µM): 0.0633; relative viability (H3255; first compound 0.002 µM): 0.375; relative viability (H3255; first compound 0.006325 µM): 0.311; relative viability (H3255; first compound 0.06325 µM): 0.406; relative viability (H3255; first compound 0.2 µM): 0.197; relative viability (201T; first compound 0.002 µM): 0.524; relative viability (201T; first compound 0.006325 µM): 0.614; relative viability (201T; first compound 0.02 µM): 0.506; relative viability (201T; first compound 0.06325 µM): 0.569; relative viability (201T; first compound 0.2 µM): 0.237; relative viability (NCI-H1651; first compound 0.002 µM): 0.352; relative viability (NCI-H1651; first compound 0.006325 µM): 0.433; relative viability (NCI-H1651; first compound 0.02 µM): 0.331; relative viability (NCI-H1651; first compound 0.06325 µM): 0.132; relative viability (NCI-H1651; first compound 0.2 µM): 0.107; relative viability (NCI-H1755; first compound 0.002 µM): 0.394; relative viability (NCI-H1755; first compound 0.006325 µM): 0.472; relative viability (NCI-H1755; first compound 0.02 µM): 0.455; relative viability (NCI-H1755; first compound 0.06325 µM): 0.258; relative viability (NCI-H1755; first compound 0.2 µM): 0.119; relative viability (NCI-H460; first compound 0.002 µM): 0.462; relative viability (NCI-H460; first compound 0.006325 µM): 0.481; relative viability (NCI-H460; first compound 0.02 µM): 0.251; relative viability (NCI-H460; first compound 0.06325 µM): 0.0185; relative viability (NCI-H460; first compound 0.2 µM): 0.0168; relative viability (NCI-H322M; first compound 0.002 µM): 0.234; relative viability (NCI-H322M; first compound 0.006325 µM): 0.262; relative viability (NCI-H322M; first compound 0.02 µM): 0.215; relative viability (NCI-H322M; first compound 0.06325 µM): 0.268; relative viability (NCI-H322M; first compound 0.2 µM): 0.276; relative viability (NCI-H1650; first compound 0.002 µM): 0.326; relative viability (NCI-H1650; first compound 0.006325 µM): 0.252; relative viability (NCI-H1650; first compound 0.02 µM): 0.162; relative viability (NCI-H1650; first compound 0.06325 µM): 0.192; relative viability (NCI-H1650; first compound 0.2 µM): 0.168; relative viability (NCI-H2085; first compound 0.002 µM): 0.219; relative viability (NCI-H2085; first compound 0.006325 µM): 0.254; relative viability (NCI-H2085; first compound 0.02 µM): 0.207; relative viability (NCI-H2085; first compound 0.06325 µM): 0.277; relative viability (NCI-H2085; first compound 0.2 µM): 0.266; relative viability (HCC-366; first compound 0.002 µM): 0.615; relative viability (HCC-366; first compound 0.006325 µM): 0.576; relative viability (HCC-366; first compound 0.02 µM): 0.652; relative viability (HCC-366; first compound 0.06325 µM): 0.0301; relative viability (HCC-366; first compound 0.2 µM): 0.0393; relative viability (NCI-H2087; first compound 0.002 µM): 0.757; relative viability (NCI-H2087; first compound 0.006325 µM): 0.441; relative viability (NCI-H2087; first compound 0.02 µM): 0.317; relative viability (NCI-H2087; first compound 0.06325 µM): 0.102; relative viability (NCI-H2087; first compound 0.2 µM): 0.086; relative viability (NCI-H522; first compound 0.002 µM): 1.1; relative viability (NCI-H522; first compound 0.006325 µM): 0.936; relative viability (NCI-H522; first compound 0.02 µM): 0.776; relative viability (NCI-H522; first compound 0.06325 µM): 0.577; relative viability (NCI-H522; first compound 0.2 µM): 0.481
